Results taken from PubChem BioAssay AID1645865 (Buhrlage Lab, Dana-Farber Cancer Institute and Novartis …, 2021).
Calls of active or inactive are those of the source.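 Rule for the calls: active = maximal inhibition of the USP30 enzyme reaching 30% or more across the dose series; inactive = the rest.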

Molecular target: Ubiquitin carboxyl-terminal hydrolase 30 (Homo sapiens) (UniProt Q70CQ3)
Test: inhibitors of ubiquitin-specific protease 30 deubiquitylating enzyme, concentration dependence, in vitro biochemical, validation of primary hits (AID 1645865)
Conditions: purified USP30, Ub-rhodamine cleavage, fluorescence, 2 h

Ubiquitin carboxyl-terminal hydrolase 30 (Homo sapiens), sequence (Q70CQ3 whole entry, looked up): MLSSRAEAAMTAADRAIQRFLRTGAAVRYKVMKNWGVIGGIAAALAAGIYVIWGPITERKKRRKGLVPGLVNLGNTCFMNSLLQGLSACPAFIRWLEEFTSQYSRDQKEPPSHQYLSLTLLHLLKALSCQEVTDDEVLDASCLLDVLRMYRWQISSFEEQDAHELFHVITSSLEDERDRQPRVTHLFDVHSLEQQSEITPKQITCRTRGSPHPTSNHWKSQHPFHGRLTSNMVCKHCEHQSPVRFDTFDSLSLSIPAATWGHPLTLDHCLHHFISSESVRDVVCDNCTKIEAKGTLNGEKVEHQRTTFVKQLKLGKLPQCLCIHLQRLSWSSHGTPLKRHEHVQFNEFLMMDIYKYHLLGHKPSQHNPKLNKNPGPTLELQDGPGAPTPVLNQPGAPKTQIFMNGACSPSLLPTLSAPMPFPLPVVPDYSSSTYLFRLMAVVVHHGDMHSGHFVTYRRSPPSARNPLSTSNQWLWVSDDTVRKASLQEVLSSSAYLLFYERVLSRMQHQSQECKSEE

SMILES	IC50
Cc1cccc(O)c1-c1nc2c(-c3nc4c(C(=O)O)cccc4o3)cccc2o1	> 50 µM (inactive)
O=C(Nc1ccc2ccccc2n1)c1ccc(Cl)cc1	2.08 µM
COc1cccc(-n2nnc(C(=O)Nc3ccc(C)c(C)c3)c2C)c1	> 50 µM (inactive)
Cc1c(CC(=O)N2CCN(c3ncccn3)CC2)c(=O)oc2cc(O)ccc12	26.3 µM
CCOc1ccc(-c2ccc3nnc(SCC(=O)Nc4cccc(C(C)=O)c4)n3n2)cc1	3.81 µM
O=C1CC(O)C(C2=CC(=O)c3c(O)cccc3C2=O)O1 (stereo not drawn)	4.46 µM
O=C(COc1ccccc1-c1nnc(-c2ccccc2)o1)Nc1ccc(F)cc1F	2.16 µM
CC(C)CCCCCCCCCCC(=O)N(C)[C@H](CO)C(=O)N[C@H](C)C(=O)NCC(=O)N(C)C1C(=O)N[C@@H](C)C(=O)NC(C(=O)O)Cc2ccc(O)c(c2)-c2cc1ccc2O (stereo partly drawn)	> 50 µM (inactive)
CCOC(=O)c1ccc(-n2c(=O)c(C#N)cc3c(=O)n4ccccc4nc32)cc1	> 50 µM (inactive)
N#Cc1cccc(NC(=O)Cn2cccc(-c3nc(-c4ccccc4)no3)c2=O)c1	> 50 µM (inactive)
Cc1cccc(-c2noc(CCn3c(=O)[nH]c4ccccc4c3=O)n2)c1	29.8 µM
COc1ccc(NC(=O)c2nc3n(n2)-c2ccccc2S(=O)(=O)N3)cn1	> 50 µM (inactive)
CCOc1ccc(NC(=O)COc2cccc(-n3cnnn3)c2)cc1	> 50 µM (inactive)
Cc1noc(-c2cccn(Cc3cccc(C(F)(F)F)c3)c2=O)n1	> 50 µM (inactive)
COc1ccc(C(=O)Nc2ccc(S(=O)(=O)N3CCCCC3)cc2)cc1	> 50 µM (inactive)
Cc1ccc2c(c1C)NC(=O)[C@]21[C@@H]2C(=O)N(c3cc(Cl)ccc3Cl)C(=O)[C@@H]2[C@@H]2CCCN21	> 50 µM (inactive)
CCc1nnc(NC(=O)c2nnn(-c3ccccc3Cl)c2C)s1	> 50 µM (inactive)
CC(OC(=O)c1c2c(nc3ccccc13)CCCCC2)C(=O)Nc1ccc2ccccc2c1 (stereo not drawn)	2.65 µM
O=C(O)c1ccccc1C(=O)Nc1ccc(SC(C(=O)Nc2ccccc2)c2ccccc2)cc1 (stereo not drawn)	> 50 µM (inactive)
CC(Sc1n[nH]c2nc3ccccc3n12)C(=O)Nc1ccc2c(c1)OCCO2 (stereo not drawn)	> 50 µM (inactive)
COc1cc(O)c2c(c1)C1=CC(=O)C(O)=C[C@]1(C)OC2=O	34.6 µM
Cc1ccc(CNC(=O)Cn2cnc3c(cnn3-c3cccc(Cl)c3)c2=O)cc1	1.15 µM
C/C1=C/C=C/[C@H](C)[C@H](O)[C@@H](C)[C@@H](O)[C@@H](C)[C@H](O)[C@H](C)[C@@H](O)[C@@H](C)/C=C(/C)C(=O)c2c(O)c(C)cc3c2C(=O)C=C(NC1=O)C3=O	> 50 µM (inactive)
O=C(Nc1cccc(F)c1)C1CCCN(S(=O)(=O)N2CCCCCC2)C1 (stereo not drawn)	36.4 µM

SMILES	IC50
COc1cccc(CN2CCc3nc4nc(C)ccc4cc3C2)c1	> 50 µM (inactive)
O=C(c1ccco1)N1CCN=C1SCc1ccccc1F	> 50 µM (inactive)
Cc1ccc(NC(=O)CCC(=O)Nc2ccc3nc(N4CCCCC4)cc(C)c3c2)c(Br)c1	36.4 µM
O=C1Cc2ccccc2C(=O)N1c1ccc2c(c1)OCO2	> 50 µM (inactive)
Cc1ccc(C)c(Nc2cc(C)nc3nc(-c4ccco4)nn23)c1	> 50 µM (inactive)
COc1ccc(C(=O)CSc2nnc(-c3cccnc3)n2-c2ccccc2)cc1	> 50 µM (inactive)
Cc1cccc(C)c1NC(=O)Cn1c(=O)n(CCCCC(=O)NCc2ccc3c(c2)OCO3)c(=O)c2ccccc21	1.5 µM
Cc1ccc2nc(CNC(=O)c3ccccc3-c3nc(-c4ccc(F)cc4)no3)[nH]c2c1	33.9 µM
c1ccc(-n2nnc(-c3noc(-c4cccnc4)n3)c2-c2ccncc2)cc1	25.9 µM
O=C(C(c1ccccc1)c1ccccc1)N1CCC(c2nc3c(nnn3Cc3c(F)cccc3Cl)c(=O)[nH]2)CC1	11.5 µM
COc1ccc(C(=O)CSc2ccc3nnc(CCNC(=O)c4ccc(OC)cc4)n3n2)cc1	> 50 µM (inactive)
COc1ccc2nc(-c3ccc(NC(=O)c4cccc(OC)c4OC)cc3)cn2n1	1.89 µM
COc1cc(Cn2cnc3c([nH]c4ccc(Br)cc43)c2=O)cc(OC)c1	2.67 µM
O=c1[nH]c(C2CCN(S(=O)(=O)c3ccc(S(=O)(=O)NC4CCCC4)cc3)CC2)nc2c1nnn2Cc1cccc(Cl)c1	> 50 µM (inactive)
Cc1ccc2[nH]c(=O)c(-c3nc4ccc(C)cn4c3NCc3ccc(F)cc3)cc2c1	2.1 µM
O=C(CCn1c(=O)c2ccccc2n(Cc2cc(=O)n3ccccc3n2)c1=O)NCCc1ccc(Cl)cc1	28.5 µM
CC(C)(C)C(=O)[C@@H]1[C@@H](C(=O)c2ccc3c(c2)OCO3)[C@@]2(C(=O)Nc3ccccc32)[C@H]2c3ccccc3C=CN12	> 50 µM (inactive)
O=C(Nc1oc2ccccc2c(=O)c1-c1ccc2c(c1)OCO2)C1CCCCC1	27.2 µM
O=C(Nc1cccc(-c2nc3ccccc3[nH]2)c1)c1cc2ccccc2oc1=O	0.304 µM
O=C(NC1(O)C(=O)c2ccccc2C1=O)c1ccc(-c2csnn2)cc1	32.1 µM
Cc1ccc(-n2nc(C)c3c2NC(=O)CC3C(=O)c2cc3ccccc3o2)cc1C (stereo not drawn)	> 50 µM (inactive)
Cc1nnc(Sc2cc(C(=O)NCCN3CCCC3)c3ccccc3n2)s1	> 50 µM (inactive)
COc1ccccc1-c1nc2c3c(C)c(C)n(-c4ccc(Br)cn4)c3ncn2n1	0.887 µM
Cc1cccc(-c2nc3n(CC(=O)Nc4ccc(Cl)cc4)c(C)cc(=O)n3n2)c1	0.179 µM
